Experimental data as given in ChEMBL document CHEMBL1155774, “Pharmacokinetics, safety, and hydrolysis of oral pyrroloquinazolinediamines administered in single and multiple doses in rats” (Antimicrob Agents Chemother, 2007).

What was measured:
[1] = system: Rattus norvegicus; test: Toxicity in intragastrically dosed Sprague-Dawley rat assessed as mortality at 2340 umol/kg administered as single dose after 14 days; assay type: organism-based; conditions: in vivo, po, 336 h
[2] = system: Rattus norvegicus; test: Anorexic toxicity in intragastrically dosed Sprague-Dawley rat assessed as ratio of body weight change to day of weight change at 780 umol/kg administered as single dose after 14 days; assay type: organism-based; conditions: in vivo, po, 336 h
[3] = Toxicity in intragastrically dosed Sprague-Dawley rat; assay type: organism-based; conditions: in vivo, po
[4] = system: Rattus norvegicus; test: Bioavailability in intragastrically dosed Sprague-Dawley rat assessed as pyrroloquinazolinediamine level at 95 umol/kg administered as single dose; assay type: ADME, organism-based; conditions: in vivo, po
[5] = system: Rattus norvegicus; test: Anorexic toxicity in intragastrically dosed Sprague-Dawley rat assessed as ratio of body weight change to day of weight change at 47.6 umol/kg administered daily for 3 days measured after 14 days; assay type: organism-based; conditions: in vivo, po, 336 h
[6] = system: Rattus norvegicus; test: Bioavailability in intragastrically dosed Sprague-Dawley rat assessed as pyrroloquinazolinediamine level at 47.6 umol/kg administered daily for 3 days measured on day 3; assay type: ADME, organism-based; conditions: in vivo, po, 72 h
[7] = system: Rattus norvegicus; test: Anorexic toxicity in intragastrically dosed Sprague-Dawley rat assessed as ratio of body weight change to day of weight change at 1170 umol/kg administered as single dose after 14 days; assay type: organism-based; conditions: in vivo, po, 336 h
[8] = system: Rattus norvegicus; test: Cmax in intragastrically dosed Sprague-Dawley rat assessed as pyrroloquinazolinediamine level at 47.6 umol/kg administered daily for 3 days measured on day 3; assay type: ADME, organism-based; set-up: dose 47.6 umol/kg, route intragastric; conditions: in vivo, po, 72 h
[9] = system: Rattus norvegicus; test: Cmax in intragastrically dosed Sprague-Dawley rat assessed as pyrroloquinazolinediamine level at 47.6 umol/kg administered daily for 3 days measured on day 1; assay type: ADME, organism-based; set-up: dose 47.6 umol/kg, route intragastric; conditions: in vivo, po, 72 h
[10] = system: Rattus norvegicus; test: Elimination half life in intragastrically dosed Sprague-Dawley rat assessed as pyrroloquinazolinediamine level at 95 umol/kg administered as single dose; assay type: ADME, organism-based; conditions: in vivo, po
[11] = system: Rattus norvegicus; test: Anorexic toxicity in intragastrically dosed Sprague-Dawley rat assessed as ratio of body weight change to day of weight change at 11.9 umol/kg administered daily for 3 days measured after 14 days; assay type: organism-based; conditions: in vivo, po, 336 h
[12] = system: Rattus norvegicus; test: Anorexic toxicity in intragastrically dosed Sprague-Dawley rat assessed as ratio of body weight change to day of weight change at 195 umol/kg administered as single dose after 14 days; assay type: organism-based; conditions: in vivo, po, 336 h
[13] = Toxicity in intragastrically dosed Sprague-Dawley rat assessed as maximum tolerated dose; assay type: organism-based; conditions: in vivo, po
[14] = system: Rattus norvegicus; test: Cmax in intragastrically dosed Sprague-Dawley rat assessed as pyrroloquinazolinediamine level at 95 umol/kg administered as single dose; assay type: ADME, organism-based; set-up: dose 95 umol/kg, route intragastric; conditions: in vivo, po
[15] = system: Rattus norvegicus; test: AUC (0 to infinity) in intragastrically dosed Sprague-Dawley rat assessed as pyrroloquinazolinediamine level at 95 umol/kg administered as single dose; assay type: ADME, organism-based, Plasma; set-up: dose 95 umol/kg, time infinity, route intragastric; conditions: in vivo, po
[16] = system: Rattus norvegicus; test: Tmax in intragastrically dosed Sprague-Dawley rat assessed as pyrroloquinazolinediamine level at 47.6 umol/kg administered daily for 3 days measured on day 3; assay type: ADME, organism-based; conditions: in vivo, po, 72 h
[17] = system: Rattus norvegicus; test: AUC (0 to infinity) in intragastrically dosed Sprague-Dawley rat assessed as pyrroloquinazolinediamine level at 47.6 umol/kg administered daily for 3 days measured on day 3; assay type: ADME, organism-based, Plasma; set-up: dose 47.6 umol/kg, time infinity, route intragastric; conditions: in vivo, po, 72 h
[18] = system: Rattus norvegicus; test: Elimination half life in intragastrically dosed Sprague-Dawley rat assessed as pyrroloquinazolinediamine level at 47.6 umol/kg administered daily for 3 days measured on day 3; assay type: ADME, organism-based; conditions: in vivo, po, 72 h
[19] = system: Rattus norvegicus; test: Anorexic toxicity in intragastrically dosed Sprague-Dawley rat assessed as ratio of body weight change to day of weight change at 23.8 umol/kg administered daily for 3 days measured after 14 days; assay type: organism-based; conditions: in vivo, po, 336 h
[20] = system: Rattus norvegicus; test: AUC (0 to infinity) in intragastrically dosed Sprague-Dawley rat assessed as pyrroloquinazolinediamine level at 47.6 umol/kg administered daily for 3 days measured on day 1; assay type: ADME, organism-based, Plasma; set-up: dose 47.6 umol/kg, time infinity, route intragastric; conditions: in vivo, po, 72 h
[21] = system: Rattus norvegicus; test: Tmax in intragastrically dosed Sprague-Dawley rat assessed as pyrroloquinazolinediamine level at 95 umol/kg administered as single dose; assay type: ADME, organism-based; conditions: in vivo, po
[22] = system: Rattus norvegicus; test: Elimination half life in intragastrically dosed Sprague-Dawley rat assessed as pyrroloquinazolinediamine level at 47.6 umol/kg administered daily for 3 days measured on day 1; assay type: ADME, organism-based; conditions: in vivo, po, 72 h
[23] = system: Rattus norvegicus; test: Total AUC in intragastrically dosed Sprague-Dawley rat assessed as pyrroloquinazolinediamine level at 47.6 umol/kg administered daily for 3 days measured on day 3; assay type: ADME, organism-based; set-up: dose 47.6 umol/kg, route intragastric, time AUCmax; conditions: in vivo, po, 72 h
[24] = system: Rattus norvegicus; test: Anorexic toxicity in intragastrically dosed Sprague-Dawley rat assessed as ratio of body weight change to day of weight change after 14 days; assay type: organism-based; conditions: in vivo, po, 336 h
[25] = system: Rattus norvegicus; test: Bioavailability in intragastrically dosed Sprague-Dawley rat assessed as pyrroloquinazolinediamine level at 47.6 umol/kg administered daily for 3 days measured on day 1; assay type: ADME, organism-based; conditions: in vivo, po, 72 h
[26] = system: Rattus norvegicus; test: Tmax in intragastrically dosed Sprague-Dawley rat assessed as pyrroloquinazolinediamine level at 47.6 umol/kg administered daily for 3 days measured on day 1; assay type: ADME, organism-based; conditions: in vivo, po, 72 h
[27] = system: Rattus norvegicus; test: Anorexic toxicity in intragastrically dosed Sprague-Dawley rat assessed as ratio of body weight change to day of weight change at 95 umol/kg administered daily for 3 days measured after 14 days; assay type: organism-based; conditions: in vivo, po, 336 h
[28] = system: Rattus norvegicus; test: Toxicity in intragastrically dosed Sprague-Dawley rat at 2340 umol/kg; assay type: organism-based; conditions: in vivo, po
[29] = system: Rattus norvegicus; test: Anorexic toxicity in intragastrically dosed Sprague-Dawley rat assessed as ratio of body weight change to day of weight change at 1560 umol/kg administered as single dose after 14 days; assay type: organism-based; conditions: in vivo, po, 336 h
[30] = system: Rattus norvegicus; test: Elimination half life in intragastrically dosed Sprague-Dawley rat assessed as monoacetamide pyrroloquinazolinediamine level at 95 umol/kg administered as single dose; assay type: ADME, organism-based; conditions: in vivo, po
[31] = system: Plasma; test: Metabolic stability in Sprague-Dawley rat plasma assessed as formation of pyrroloquinazolinediamine after 30 mins; assay type: ADME, cell-free; conditions: 0.5 h
[32] = system: Rattus norvegicus; test: AUC in intragastrically dosed Sprague-Dawley rat assessed as bisacetamide pyrroloquinazolinediamine level at 95 umol/kg administered as single dose; assay type: ADME, organism-based, Plasma; conditions: in vivo, po
[33] = system: Rattus norvegicus; test: AUC in intragastrically dosed Sprague-Dawley rat assessed as monoacetamide pyrroloquinazolinediamine level at 95 umol/kg administered as single dose; assay type: ADME, organism-based, Plasma; conditions: in vivo, po
[34] = system: Rattus norvegicus; test: Anorexic toxicity in intragastrically dosed Sprague-Dawley rat assessed as ratio of body weight change to day of weight change at 190 umol/kg administered daily for 3 days measured after 14 days; assay type: organism-based; conditions: in vivo, po, 336 h
[35] = system: Rattus norvegicus; test: Anorexic toxicity in intragastrically dosed Sprague-Dawley rat assessed as ratio of body weight change to day of weight change at 2340 umol/kg administered as single dose after 14 days; assay type: organism-based; conditions: in vivo, po, 336 h
[36] = system: Rattus norvegicus; test: Metabolic stability in intragastrically dosed Sprague-Dawley rat assessed as formation of pyrroloquinazolinediamine; assay type: ADME, organism-based; conditions: in vivo, po
[37] = system: Rattus norvegicus; test: Elimination half life in intragastrically dosed Sprague-Dawley rat assessed as bisacetamide pyrroloquinazolinediamine level at 95 umol/kg administered as single dose; assay type: ADME, organism-based; conditions: in vivo, po

Row | Structure (SMILES) | Ratio [2] | F [4] [%] | Ratio [5] | F [6] [%] | Ratio [7] | Cmax [8] [ng/mL] | Cmax [9] [ng/mL] | t1/2 [10] [h] | Ratio [11] | Ratio [12] | MTD [13] [µmol/kg] | Cmax [14] [ng/mL] | AUC [15] [ng·h/mL] | Tmax [16] [h] | AUC [17] [ng·h/mL] | t1/2 [18] [h] | Ratio [19] | AUC [20] [ng·h/mL] | Tmax [21] [h] | t1/2 [22] [h] | further results
1 | CCOC(=O)Nc1nc(NC(=O)OCC)c2c(ccc3c2ccn3Cc2ccccc2C(F)(F)F)n1 | 2.21 | 14.86 | 0.71 | 31.06 | 0.84 | 63.36 | 59.46 | 13.59 | 2.42 | 2.49 | 1170 | 108.7 | 1381.4 | 3.33 | 1529.6 | 16.93 | 1.88 | 875.5 | 3.83 | 13.29 | Activity [1]: Toxic; LD50 [3]: 1570 µmol/kg; AUC [23]: 2856.1 ng·h/mL; ID50 [24]: 60.65 µmol/kg; F [25]: 20.45%; Tmax [26]: 3 h; Ratio [27]: -0.65
2 | CC(=O)N(C(C)=O)c1nc(N(C(C)=O)C(C)=O)c2c(ccc3c2ccn3Cc2ccccc2C(F)(F)F)n1 | 2.47 | 11.45 | 2.06 | 26.96 | 2.76 | 30.84 | 31.23 | 13.2 | 2.46 | 2.55 | 2340 | 60.5 | 1047.3 | 5.67 | 1250.1 | 17.66 | 2.61 | 705.9 | 5.33 | 12.86 | Activity [28]: Non-toxic; Ratio [29]: 2.08; t1/2 [30]: 13.16 h; Activity [31]: 49%; AUC [32]: 24.9 ng·h/mL; AUC [33]: 176.5 ng·h/mL; Ratio [34]: -0.89; Ratio [35]: 1.03; Activity [36]: 84%; AUC [23]: 1903.5 ng·h/mL; ID50 [24]: 140.43 µmol/kg; F [25]: 16.49%; Tmax [26]: 7 h; Ratio [27]: 1.18; t1/2 [37]: 12.64 h
